Measured values from article PMC3057995, “Potent Anti-Tumor Effect Generated by a Novel Human Papillomavirus (HPV) Antagonist Peptide Reactivating the pRb/E2F Pathway” (PLoS ONE, 2011).

Assays:
SiHa tumor xenografts = assay: Subcutaneous tumor model in nude mice; assay type: in vivo, mouse (Balb/C-nu/nu); conditions: 400 and 800 µg/mouse i.v., 16 days, p<0.01
Description: A subcutaneous tumor model of nude mice was constructed. In brief, six-week-old female nude mice (18±2 g) were subcutaneously inoculated with 1.5×10^7 SiHa cells. When the tumor size reached about 100 mm^2, the mice were randomly divided into four groups with 5 mice each, namely, control group, low-dose group, middle-dose group, and high-dose group. […] The mice were raised for another 3 weeks. Tumor sizes were measured with a caliper every three days and tumor volume was calculated using “volume = length×width^2/2.” At the end of the experiment, all mice were sacrificed and the weights of the detached tumors were measured. Tumor growth inhibition ratio was represented as the tumor weight relative to the control, calculated using the formula, “Relative tumor weight (% of control) = average tumor weight of treatment group/average tumor weight of control group×100%.”

SiHa cells [1] = assay: qRT-PCR, SiHa; assay type: cell-based; conditions: 80 µM
Description: Total RNA was extracted from the cultured cells using TRIzol reagent (Invitrogen, Carlsbad, CA,USA) according to the manufacturer's instructions. qRT-PCR was used to confirm the expression levels of mRNAs. Reverse transcription and qPCR were performed according to the protocol of Reverse Transcriptase System™ and SYBR® premix Ex Taq™ (Perfect Real Time) (TaKaRa, Dalian, P.R. China) on the ABI 7300 Real Time PCR System (Applied Biosystems, Foster City, CA, USA) supplied with analytical software. β-actin mRNA levels were used for normalization. Each sample was determined in triplicate. The results represent means ± SE from three experiment runs.

HeLa cells = assay: MTT cell viability assay, HeLa; assay type: cell-based; conditions: HPV18-positive, A540
Description: (§1) Cell viability was determined with an MTT assay. Briefly, the cells were seeded into 96-well plates at a density of 4–5×10^3 cells/well. The cells were allowed to recover for 24 h before the medium was replaced with DMEM supplemented with peptides at different concentrations. The solvent of the peptides was set as the control. The peptide-supplemented medium was replaced daily and the respective concentrations were maintained. The cells were subjected to an MTT cell proliferation assay at different time points. The plates were incubated at 37°C for 3 h with the addition of 20 µl/well MTT (5 mg/ml). Untransformed MTT in the solution was removed by aspiration. The formazan product was dissolved in DMSO, and plates were shaken vigorously at room temperature for 10–15 min to ensure complete solubilization. The optical density of the formazan solutions was measured by microplate reader at 540 nm.

SiHa cells [2] = assay: Western blot, SiHa; assay type: cell-based; conditions: 80 µM
Description: Western blotting was carried out as described previously, [50]. […] After another 48 h of treatment, the cells were lysed in lysis buffer (Beyotime Institute of Biotechnology, Jiangshu, China) containing PMSF (Sigma Chemical Co., St. Louis, MI, USA) for 30 min at 4°C. The lysate was then centrifuged for 20 min at 13,000 rpm and 4°C. The proteins were then separated through SDS-PAGE and transferred onto the PVDF membrane (Immobion®-P Transfer Membrane, Millipore Corp., Billerica, MA, USA). Membranes were blocked in a Tris-buffered saline with 0.1% Tween-20 (TBS-T) solution with 5% nonfat dry milk and incubated overnight with primary antibodies at 4°C. The immunoreactive signals were detected by HRP-conjugated secondary antibodies (KPL, Gaithersburg, MD, USA) followed by SuperSignal® West Pico Chemiluminescent Substrate (Thermo Scientific, Milford, MA, USA.). Anti-β-actin antibodies were used to control protein loading. For the in vivo studies, tumors were harvested, and the cell lysates were prepared and transferred to a clean Eppendorf tube and centrifuged for 30 min at 14,000 rpm. The supernate was probed by western blotting, as described above.

[3] = tested on: HaCat human keratinocyte cells; assay: MTT cell viability assay, HaCat; assay type: cell-based; conditions: HPV-negative, data not shown
From the text: (§2) HPV16-positive SiHa and CaSki cervical carcinoma cells were supplied by China Center for Type Culture Collection (CCTCC). The following cell lines used in this project were from our laboratory: HPV18-positive HeLa cervical carcinoma cells, CNE nasopharyngeal carcinoma cells, HaCat human keratinocyte cells, COS7 (African green monkey SV40-transformed kidney fibroblast cell line), 293T (human kidney epithelial cells), and NIH/3T3 mouse embryonic fibroblast cells. All cells were maintained in a humidified atmosphere of 5% CO2, Dulbecco's modified Eagle's medium (DMEM, pH 7.2), supplemented with 10% fetal calf serum (FCS).
as §1, with “The formazan product was dissolved in DMSO, and plates were shaken vigorously at room temperature for 10–15 min to ensure complete solubilization.” left out

HPV16E7/pRb interaction = assay: His-pull down of pRb by His-HPV16E7; assay type: binding; conditions: 293T cell lysate (300 µg total proteins), 10 µl 8 mmol/L Pep-7, overnight 4°C
Description: For pull-down analysis, the purified His-HPV E7 protein (200 µg/ml×50 µl) was preincubated with 100 µl His-band Resin (Amersham Biosciences, Little Chalfont, UK) for 4 h at 4°C. The beads were then washed four times with lysis buffer and divided into two equal portions. […] The mixtures were incubated overnight at 4°C under continuous agitation. Beads were subsequently washed four times with a lysis buffer. Bound proteins were eluted by boiling in Laemmli sample buffer and analyzed by Western blot.

[4] = tested on: NIH/3T3 embryonic fibroblast cells; assay: MTT cell viability assay, NIH 3T3; assay type: cell-based, mouse; conditions: NIH 3T3, HPV-negative; data not shown
From the text: as §2
as §1, with “The formazan product was dissolved in DMSO, and plates were shaken vigorously at room temperature for 10–15 min to ensure complete solubilization.” left out

## SACPKGLDWCGG (C&C bridged by disulfide bonds) (disulfide) [Pep-7]
SiHa tumor xenografts
  anti-tumor efficacy: significant anti-tumor efficacy
SiHa cells [1]
  cyclins A, D1 and E1 RNA expression: significantly reduced
  pRb and HPV16E7 RNA levels: not affected
HeLa cells
  cell proliferation (MTT): could not repress the proliferation of HeLa cells
SiHa cells [2]; SiHa and CaSki (Fig. 4D)
  p107 and p130 protein levels: did not exhibit an effect
SiHa cells [2]; SiHa, 48 h
  HPV16E7 protein level: reduced
  cyclins A, D1 and E1 protein expression: significantly reduced
  pRb protein level: increased
[3]
  cell proliferation (MTT): negligible effect
HPV16E7/pRb interaction
  pull-down of pRb by His-HPV16E7: could not pull down pRb from 293T cell lysates with Pep-7 present
[4]
  cell proliferation (MTT): negligible effect
